From publication PMC4030036, “Small molecule kinase inhibitor LRRK2-IN-1 demonstrates potent activity against colorectal and pancreatic cancer through inhibition of doublecortin-like kinase 1” (Molecular Cancer, 2014)

Legend:
[1] = molecular target: T1, Doublecortin-like kinase 1 (DCLK1) (Homo sapiens, UniProt O15075); test: in vitro kinase assay (Kinase-Glo luminescence) with purified active DCLK1, autocamtide II substrate and […] ATP; format: biochemical
T1 sequence (O15075 1-740): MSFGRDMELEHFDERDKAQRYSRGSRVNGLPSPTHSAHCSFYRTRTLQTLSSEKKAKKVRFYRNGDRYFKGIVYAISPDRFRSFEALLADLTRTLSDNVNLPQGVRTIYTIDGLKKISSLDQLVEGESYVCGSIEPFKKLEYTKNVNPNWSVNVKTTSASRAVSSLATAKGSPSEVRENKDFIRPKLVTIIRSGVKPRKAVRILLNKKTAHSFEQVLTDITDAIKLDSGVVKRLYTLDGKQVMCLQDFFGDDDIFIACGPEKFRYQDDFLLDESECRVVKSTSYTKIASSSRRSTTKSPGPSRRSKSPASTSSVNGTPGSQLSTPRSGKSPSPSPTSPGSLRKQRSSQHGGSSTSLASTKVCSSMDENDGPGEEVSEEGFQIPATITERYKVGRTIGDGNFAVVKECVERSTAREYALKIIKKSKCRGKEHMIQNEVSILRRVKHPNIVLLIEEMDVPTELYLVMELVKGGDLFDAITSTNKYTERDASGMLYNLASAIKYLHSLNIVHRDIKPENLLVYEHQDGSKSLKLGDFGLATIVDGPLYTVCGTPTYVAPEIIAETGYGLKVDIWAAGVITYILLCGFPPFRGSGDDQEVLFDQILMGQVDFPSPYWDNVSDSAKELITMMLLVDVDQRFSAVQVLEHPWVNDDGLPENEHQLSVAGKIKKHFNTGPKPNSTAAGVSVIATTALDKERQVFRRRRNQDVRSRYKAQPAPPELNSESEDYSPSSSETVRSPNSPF

[2] = test system: MiaPaCa-2; test: cells; set-up: MTT proliferation assay, sigmoidal dose-response fit, colon and pancreatic cancer cell lines; details: Homo sapiens, MIA PaCa-2; 48 h MTT
[3] = test system: DLD-1; test: cells; set-up: MTT proliferation assay, sigmoidal dose-response fit, colon and pancreatic cancer cell lines; details: Homo sapiens, DLD-1; 48 h MTT
[4] = test system: HT-29; test: cells; set-up: MTT proliferation assay, sigmoidal dose-response fit, colon and pancreatic cancer cell lines; details: Homo sapiens, HT-29; 48 h MTT
[5] = test system: SW1990; test: cells; set-up: MTT proliferation assay, sigmoidal dose-response fit, colon and pancreatic cancer cell lines; details: Homo sapiens, SW1990; 48 h MTT

IC50 [1]: 2.61 nM
IC50 [2]: 2010 nM
IC50 [3]: 3220 nM
IC50 [4]: 2070 nM
IC50 [5]: 5190 nM
Compound: COc1cc(C(=O)N2CCC(N3CCN(C)CC3)CC2)ccc1Nc1ncc2c(n1)N(C)c1ccccc1C(=O)N2C [LRRK2-IN-1]
